{"source": "patent EP2236138A1", "about": "(priority 2009, dated 2010)", "key": {"D2": {"biological_target": "D2 (Homo sapiens, UniProt P14416)", "sequence (P14416 whole entry)": "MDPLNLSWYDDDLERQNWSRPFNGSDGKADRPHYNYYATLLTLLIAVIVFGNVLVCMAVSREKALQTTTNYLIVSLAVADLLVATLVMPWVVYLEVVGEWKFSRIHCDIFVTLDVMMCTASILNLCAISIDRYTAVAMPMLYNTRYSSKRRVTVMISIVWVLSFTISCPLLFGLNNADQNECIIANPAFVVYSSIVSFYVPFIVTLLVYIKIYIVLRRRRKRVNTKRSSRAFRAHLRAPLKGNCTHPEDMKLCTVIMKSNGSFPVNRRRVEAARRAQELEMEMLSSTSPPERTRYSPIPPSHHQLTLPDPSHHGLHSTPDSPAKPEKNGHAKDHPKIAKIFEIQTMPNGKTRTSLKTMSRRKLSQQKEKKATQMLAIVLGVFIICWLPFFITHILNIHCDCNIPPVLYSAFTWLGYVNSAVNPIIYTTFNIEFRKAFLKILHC", "assay_type": "binding"}, "D3": {"biological_target": "D3 (Homo sapiens, UniProt P35462)", "sequence (P35462 whole entry)": "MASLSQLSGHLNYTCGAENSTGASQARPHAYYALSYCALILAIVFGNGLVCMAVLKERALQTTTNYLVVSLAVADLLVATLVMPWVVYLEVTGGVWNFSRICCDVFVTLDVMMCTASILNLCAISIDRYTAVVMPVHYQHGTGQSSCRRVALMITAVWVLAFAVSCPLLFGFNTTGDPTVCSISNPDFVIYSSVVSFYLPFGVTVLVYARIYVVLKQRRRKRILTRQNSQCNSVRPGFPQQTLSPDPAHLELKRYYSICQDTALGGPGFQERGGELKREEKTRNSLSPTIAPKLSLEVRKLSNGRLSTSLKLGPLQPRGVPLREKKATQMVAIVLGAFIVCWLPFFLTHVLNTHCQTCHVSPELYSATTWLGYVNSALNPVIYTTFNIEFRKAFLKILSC", "experiment": "biochemical", "assay_type": "binding"}, "5HT2C": {"biological_target": "T1, 5HT2C (Homo sapiens, UniProt P28335)", "T1 sequence (P28335 33-458)": "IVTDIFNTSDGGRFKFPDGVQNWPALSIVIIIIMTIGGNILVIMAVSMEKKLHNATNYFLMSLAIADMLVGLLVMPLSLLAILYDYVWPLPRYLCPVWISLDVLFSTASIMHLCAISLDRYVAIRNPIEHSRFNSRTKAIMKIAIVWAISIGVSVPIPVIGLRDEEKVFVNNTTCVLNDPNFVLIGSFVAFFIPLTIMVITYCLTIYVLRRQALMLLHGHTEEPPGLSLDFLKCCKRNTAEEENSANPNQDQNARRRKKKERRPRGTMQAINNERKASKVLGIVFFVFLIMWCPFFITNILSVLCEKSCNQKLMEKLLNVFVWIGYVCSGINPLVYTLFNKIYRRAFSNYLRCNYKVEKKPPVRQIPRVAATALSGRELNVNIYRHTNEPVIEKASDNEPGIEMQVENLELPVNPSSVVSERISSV", "assay_type": "binding"}, "5HT6rat": {"biological_target": "5HT6rat (Rattus norvegicus, UniProt P31388)", "sequence (P31388 whole entry)": "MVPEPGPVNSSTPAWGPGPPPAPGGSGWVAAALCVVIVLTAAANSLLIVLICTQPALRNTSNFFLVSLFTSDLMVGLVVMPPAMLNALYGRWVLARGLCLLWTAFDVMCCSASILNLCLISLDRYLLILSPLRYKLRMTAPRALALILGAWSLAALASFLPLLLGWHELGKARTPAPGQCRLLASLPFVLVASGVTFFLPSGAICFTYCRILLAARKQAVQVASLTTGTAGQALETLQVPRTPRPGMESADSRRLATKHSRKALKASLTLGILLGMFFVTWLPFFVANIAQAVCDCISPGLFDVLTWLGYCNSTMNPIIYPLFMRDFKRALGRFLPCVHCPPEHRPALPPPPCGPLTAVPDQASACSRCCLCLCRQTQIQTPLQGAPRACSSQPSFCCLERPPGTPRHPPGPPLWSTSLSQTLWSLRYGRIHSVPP", "experiment": "pKi values of test compounds, 5HT6 rat (Table 1)", "assay_type": "binding"}, "Beta1": {"biological_target": "Beta1 (Homo sapiens, UniProt P08588)", "sequence (P08588 whole entry)": "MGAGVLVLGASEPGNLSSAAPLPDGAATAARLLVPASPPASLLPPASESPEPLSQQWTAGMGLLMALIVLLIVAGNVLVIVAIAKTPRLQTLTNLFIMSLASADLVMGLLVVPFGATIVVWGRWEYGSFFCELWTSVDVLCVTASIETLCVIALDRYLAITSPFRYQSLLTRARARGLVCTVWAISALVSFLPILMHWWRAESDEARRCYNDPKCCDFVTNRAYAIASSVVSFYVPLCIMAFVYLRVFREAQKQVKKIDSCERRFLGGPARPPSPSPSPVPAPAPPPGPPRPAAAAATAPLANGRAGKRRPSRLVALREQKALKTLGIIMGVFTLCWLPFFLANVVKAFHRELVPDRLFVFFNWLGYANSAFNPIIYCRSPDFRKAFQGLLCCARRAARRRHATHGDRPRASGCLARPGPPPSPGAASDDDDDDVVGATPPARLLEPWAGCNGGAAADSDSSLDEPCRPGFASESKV", "experiment": "pKi values of test compounds, Beta1 (Table 1)", "assay_type": "binding"}, "Beta2": {"biological_target": "Beta2 (Homo sapiens, UniProt P07550)", "sequence (P07550 whole entry)": "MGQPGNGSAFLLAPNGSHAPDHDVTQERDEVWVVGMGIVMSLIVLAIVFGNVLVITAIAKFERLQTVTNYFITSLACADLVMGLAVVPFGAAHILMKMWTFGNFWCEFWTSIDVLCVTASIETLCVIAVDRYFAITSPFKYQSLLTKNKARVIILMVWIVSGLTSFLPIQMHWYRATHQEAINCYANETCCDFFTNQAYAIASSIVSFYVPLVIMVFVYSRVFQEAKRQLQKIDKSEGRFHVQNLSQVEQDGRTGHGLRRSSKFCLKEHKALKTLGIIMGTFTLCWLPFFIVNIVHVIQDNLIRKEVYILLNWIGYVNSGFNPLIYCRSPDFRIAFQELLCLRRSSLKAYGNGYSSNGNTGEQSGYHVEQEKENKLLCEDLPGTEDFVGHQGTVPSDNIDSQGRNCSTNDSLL", "experiment": "pKi values of test compounds, Beta2 (Table 1)", "assay_type": "binding"}, "other 5HT receptors": {"biological_target": "other 5HT receptors", "experiment": "pKi value towards other 5HT receptors", "assay_type": "binding"}, "other dopamine receptors": {"biological_target": "other dopamine receptors", "experiment": "pKi value towards other dopamine receptors", "assay_type": "binding"}, "[1]": {"system": "patients with major depression", "experiment": "Semi-naturalistic open label study of combo pipamperone-citalopram in major depression", "assay_type": "in vivo", "excerpt": "Design: Semi-naturalistic i.e. inclusion of every 'natural' patient in an outpatient practice but without concomitant use of mood enhancing drugs, open label\nPhase: Phase Ila - preliminary Proof of Concept\nLocation: Belgium - Research Centre ANIMA, Alken\nEnd Points : Assessment scale scores, Hamilton Depression Rating Scale 17 items, Reduction, Response, Remission\nMedication: Exclusion of mood stabilisers, antipsychotics (typical and atypical) and other antidepressants […]\nAdverse events are assessed on: body as a whole, central and peripheral nervous system, gastrointestinal, musculoskeletal, psychiatric, respiratory, skin and appendages, vascular and urinary, taking into account discontinued treatment due to adverse events. Laboratory parameters, ECG, bodyweight and vital signs are not measured since this is a naturalistic study."}, "D1": {"biological_target": "D1 (Homo sapiens, UniProt P21728)", "sequence (P21728 whole entry)": "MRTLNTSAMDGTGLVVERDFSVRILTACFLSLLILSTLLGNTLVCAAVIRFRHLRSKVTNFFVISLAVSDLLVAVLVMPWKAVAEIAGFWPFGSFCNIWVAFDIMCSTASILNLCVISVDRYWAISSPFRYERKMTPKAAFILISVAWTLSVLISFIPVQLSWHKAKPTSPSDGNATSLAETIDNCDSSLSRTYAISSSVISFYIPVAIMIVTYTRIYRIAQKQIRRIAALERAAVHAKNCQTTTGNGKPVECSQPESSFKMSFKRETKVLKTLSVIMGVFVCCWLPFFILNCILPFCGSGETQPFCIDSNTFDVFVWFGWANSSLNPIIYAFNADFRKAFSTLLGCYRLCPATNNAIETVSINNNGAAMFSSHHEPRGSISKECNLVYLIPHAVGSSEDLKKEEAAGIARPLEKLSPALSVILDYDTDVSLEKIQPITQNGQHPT", "assay_type": "binding"}, "5HT1A": {"biological_target": "T2, 5HT1A (Homo sapiens, UniProt P08908)", "T2 sequence (P08908 1-422)": "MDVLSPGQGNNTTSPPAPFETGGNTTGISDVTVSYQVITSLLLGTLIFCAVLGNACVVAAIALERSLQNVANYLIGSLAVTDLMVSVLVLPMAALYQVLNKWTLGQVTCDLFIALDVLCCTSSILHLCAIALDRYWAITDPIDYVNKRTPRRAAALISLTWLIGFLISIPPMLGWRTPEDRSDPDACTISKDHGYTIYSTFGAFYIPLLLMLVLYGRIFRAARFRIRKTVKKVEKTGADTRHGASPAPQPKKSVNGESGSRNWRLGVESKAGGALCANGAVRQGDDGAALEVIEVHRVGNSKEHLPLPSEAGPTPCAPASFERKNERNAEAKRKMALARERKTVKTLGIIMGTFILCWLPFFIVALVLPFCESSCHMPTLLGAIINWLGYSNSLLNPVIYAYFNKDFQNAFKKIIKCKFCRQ", "assay_type": "binding"}, "5HT1B": {"biological_target": "5HT1B (Homo sapiens, UniProt P28222)", "sequence (P28222 whole entry)": "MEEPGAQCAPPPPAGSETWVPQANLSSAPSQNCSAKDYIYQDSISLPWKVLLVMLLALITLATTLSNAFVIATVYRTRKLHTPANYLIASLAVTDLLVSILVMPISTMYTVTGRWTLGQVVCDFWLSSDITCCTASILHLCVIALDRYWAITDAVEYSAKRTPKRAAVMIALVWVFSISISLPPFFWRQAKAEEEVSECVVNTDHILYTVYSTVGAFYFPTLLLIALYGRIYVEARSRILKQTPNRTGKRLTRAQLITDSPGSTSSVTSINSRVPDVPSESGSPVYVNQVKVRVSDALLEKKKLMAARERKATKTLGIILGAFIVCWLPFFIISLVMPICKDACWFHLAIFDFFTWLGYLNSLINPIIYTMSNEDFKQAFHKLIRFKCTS", "experiment": "biochemical", "assay_type": "binding"}, "5HT1D": {"biological_target": "5HT1D (Homo sapiens, UniProt P28221)", "sequence (P28221 whole entry)": "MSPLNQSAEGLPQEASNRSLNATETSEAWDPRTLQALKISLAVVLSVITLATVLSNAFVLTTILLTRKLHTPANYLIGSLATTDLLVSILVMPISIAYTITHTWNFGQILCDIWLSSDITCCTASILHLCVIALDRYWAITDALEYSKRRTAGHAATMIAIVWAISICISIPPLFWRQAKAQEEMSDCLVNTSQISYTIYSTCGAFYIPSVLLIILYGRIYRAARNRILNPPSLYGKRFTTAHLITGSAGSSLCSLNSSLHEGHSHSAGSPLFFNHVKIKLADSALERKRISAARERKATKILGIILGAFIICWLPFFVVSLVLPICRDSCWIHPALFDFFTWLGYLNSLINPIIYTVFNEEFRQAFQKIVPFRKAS", "experiment": "biochemical", "assay_type": "binding"}, "5HT2B": {"biological_target": "5HT2B (Homo sapiens, UniProt P41595)", "sequence (P41595 whole entry)": "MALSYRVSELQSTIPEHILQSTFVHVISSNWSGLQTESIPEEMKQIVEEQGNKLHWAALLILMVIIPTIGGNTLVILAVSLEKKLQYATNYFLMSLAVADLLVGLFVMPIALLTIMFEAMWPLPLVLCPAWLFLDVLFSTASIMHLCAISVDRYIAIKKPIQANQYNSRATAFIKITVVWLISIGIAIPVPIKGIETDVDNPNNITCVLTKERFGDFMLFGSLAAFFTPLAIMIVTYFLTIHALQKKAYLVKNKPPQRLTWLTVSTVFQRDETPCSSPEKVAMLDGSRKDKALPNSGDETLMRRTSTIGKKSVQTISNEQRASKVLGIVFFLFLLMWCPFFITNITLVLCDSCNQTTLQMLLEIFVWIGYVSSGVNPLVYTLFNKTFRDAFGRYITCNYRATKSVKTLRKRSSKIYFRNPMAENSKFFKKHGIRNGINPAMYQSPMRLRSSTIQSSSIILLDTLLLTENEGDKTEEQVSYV", "experiment": "pKi values of test compounds, 5HT2B (Table 1)", "assay_type": "binding"}, "Alpha1A": {"biological_target": "T3, Alpha1A (Homo sapiens, UniProt P35348)", "T3 sequence (P35348 1-466)": "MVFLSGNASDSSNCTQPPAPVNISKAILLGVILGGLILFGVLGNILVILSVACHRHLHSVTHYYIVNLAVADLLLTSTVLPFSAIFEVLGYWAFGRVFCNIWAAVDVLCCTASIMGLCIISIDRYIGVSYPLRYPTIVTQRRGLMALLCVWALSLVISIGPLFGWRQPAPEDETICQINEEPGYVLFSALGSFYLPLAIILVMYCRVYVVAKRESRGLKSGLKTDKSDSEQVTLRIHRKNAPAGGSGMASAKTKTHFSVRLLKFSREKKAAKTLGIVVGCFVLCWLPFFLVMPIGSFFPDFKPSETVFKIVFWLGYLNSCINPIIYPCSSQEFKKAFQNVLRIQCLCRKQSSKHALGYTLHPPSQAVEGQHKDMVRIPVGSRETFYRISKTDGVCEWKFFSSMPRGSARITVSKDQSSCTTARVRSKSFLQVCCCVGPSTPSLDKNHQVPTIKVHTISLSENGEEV", "assay_type": "binding"}, "Alpha2A": {"biological_target": "T4, Alpha2A (Homo sapiens, UniProt P08913)", "T4 sequence (P08913 1-465)": "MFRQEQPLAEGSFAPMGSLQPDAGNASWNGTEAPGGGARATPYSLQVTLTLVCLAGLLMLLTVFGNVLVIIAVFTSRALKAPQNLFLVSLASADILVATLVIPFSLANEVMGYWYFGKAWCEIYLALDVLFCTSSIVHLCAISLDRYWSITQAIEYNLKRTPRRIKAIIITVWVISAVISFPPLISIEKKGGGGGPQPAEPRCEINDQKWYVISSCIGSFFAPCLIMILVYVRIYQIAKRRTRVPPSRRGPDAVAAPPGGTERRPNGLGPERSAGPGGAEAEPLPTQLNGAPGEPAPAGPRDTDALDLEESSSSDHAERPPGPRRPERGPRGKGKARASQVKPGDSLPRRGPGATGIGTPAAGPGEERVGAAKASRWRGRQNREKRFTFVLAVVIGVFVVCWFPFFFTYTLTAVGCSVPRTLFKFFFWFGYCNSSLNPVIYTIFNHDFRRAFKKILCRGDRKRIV", "experiment": "pKi values of test compounds, Alpha2A (Table 1)", "assay_type": "binding"}}, "data": [{"smiles": "O=C(C[C@H]1CCN(CCOc2cccc3c2OCCO3)C1)c1ccc(F)cc1", "note": "[S16924]", "values": [{"measurement": "pKi D2", "setting": "D2", "result": "7-8"}, {"measurement": "pKi D3", "setting": "D3", "result": "7-8"}, {"measurement": "pKi 5HT2C", "setting": "5HT2C", "result": "<6"}, {"measurement": "pKi 5HT6rat", "setting": "5HT6rat", "result": "6-7"}, {"measurement": "pKi Beta1", "setting": "Beta1", "result": "<6"}, {"measurement": "pKi Beta2", "setting": "Beta2", "result": "<6"}]}, {"smiles": "NC(=O)C1(N2CCCCC2)CCN(CCCC(=O)c2ccc(F)cc2)CC1", "note": "[Pipamperon, 1'-[3-(p-Fluorobenzoyl)propyl]-[1,4'-bipiperidine]-4'-carboxamide]", "values": [{"measurement": "pKi value towards other 5HT receptors", "setting": "other 5HT receptors", "result": "less than 8"}, {"measurement": "pKi value towards other dopamine receptors", "setting": "other dopamine receptors", "result": "less than 8"}, {"measurement": "Sedative effects of pipamperone", "setting": "[1]; major depression study, pipamperone 2-4 mg/day", "result": "lacking"}, {"measurement": "boosting effect of pipamperone on a SSRI, in this case citalopram", "setting": "[1]; major depression, pipamperone 2-4 mg/day + citalopram 20-40 mg/day PO, 8 weeks", "result": "apparent"}]}, {"smiles": "N#Cc1ccc2c(c1)[C@H]1CN(CCCCNC(=O)c3ccc(-c4ccccc4)cc3)C[C@@H]1CO2", "note": "[S33084]", "values": [{"measurement": "pKi D1", "setting": "D1", "result": "6-7"}, {"measurement": "pKi D2", "setting": "D2", "result": "7-8"}, {"measurement": "pKi 5HT1A", "setting": "5HT1A", "result": "<6"}, {"measurement": "pKi 5HT1B", "setting": "5HT1B", "result": "6-7"}, {"measurement": "pKi 5HT1D", "setting": "5HT1D", "result": "6-7"}, {"measurement": "pKi 5HT2B", "setting": "5HT2B", "result": "6-7"}, {"measurement": "pKi 5HT2C", "setting": "5HT2C", "result": "7-8"}, {"measurement": "pKi Alpha1A", "setting": "Alpha1A", "result": "6-7"}, {"measurement": "pKi Alpha2A", "setting": "Alpha2A", "result": "<6"}]}, {"smiles": "OC1(c2ccc(Cl)cc2)CCN(Cc2c[nH]c3ccccc23)CC1", "note": "[L741626]", "values": [{"measurement": "Ki", "setting": "D3", "result": "0.01 to 0.1", "unit": "µM"}, {"measurement": "Ki", "setting": "5HT1B; read-out: pKi 5HT1B (converted)", "result": "> 1", "unit": "µM"}, {"measurement": "Ki", "setting": "5HT1D", "result": "> 1", "unit": "µM"}, {"measurement": "Ki", "setting": "5HT2B", "result": "0.1 to 1", "unit": "µM"}, {"measurement": "Ki", "setting": "Alpha2A", "result": "> 1", "unit": "µM"}]}]}
